# Assay results taken from publication PMC6175574, “Kinetic mechanism of coupled binding in sodium-aspartate symporter GltPh” (eLife, 2018).
# Values joined by “and” are separate entries in the source; they are usually repeats but may differ in a detail not shown here. Equal entries are not always repeated. Where two headings read alike, the source gives them in different places.
# What was measured:
# [1] = target: P11W^IFS (Hg^2+-crosslinked P11W/K55C/A364C GltPh, inward-facing state) (Pyrococcus horikoshii, UniProt O59010, A364C/C321A/D37H/E368H/K125H/K132H/K223H/K264H/K40H/K55C/P11W); format: binding; details: for slope of kr values versus Na^+ concentration: linear fit constrained through the origin, kr from plateaus of ligand binding rates
# Method: (§1) For emission scans, protein samples at 1 µM were prepared in 2 mL of 20 mM Hepes/Tris pH 7.4, 300 mM choline chloride and 1 mM DDM. […] Baseline was determined using buffer only and subtracted from the data. […] For real-time fluorescence measurements of ligand binding, protein samples at 1 µM were incubated in 2 mL fluorometer cell containing 20 mM Hepes/Tris pH 7.4, 300 mM choline chloride and 1 mM DDM with various NaCl concentrations at 25°C. Data were normalized by dividing fractional fluorescence change by the maximal change observed upon addition of saturating ligand concentrations at the end of each experiment. After signal equilibration, ligands were added with fast stirring. Excitation and emission wavelengths were 295 and 350 nm, respectively. Here and elsewhere, data were analyzed using SigmaPlot 12.0 (Systat Software, Inc) and GraphPad Prism 7 (GraphPad Software). All kinetic relaxation curves were fitted to single exponentials.
# The full Equation 4 requires fitting of four rate constants, kr, k-r, kon and koff ([Vogt et al., 2012]). […] The data for DL-TBOA binding were fitted to Equation 3.
# P11W^IFS [2] = target: T1, P11W^IFS (Pyrococcus horikoshii, UniProt O59010, A364C/C321A/D37H/E368H/K125H/K132H/K223H/K264H/K40H/K55C/P11W); format: binding; details: for koff: fitted; for kon: reaction 1, T + Na = TNa
# Description: The kinetic models in Figure 4, Figure 4—figure supplement 4 and Figure 5—figure supplement 1 were implemented in KinTek program (KinTek, Inc) ([Johnson, 2009]) for global parameter fitting and in Copasi ([Hoops et al., 2006]) for simulations. […] Raw relaxation curves, including 21 dissociation and 58 binding reactions were fitted globally in KinTek (Figure 4—figure supplements 2 and 3).
# (§2) 68 individual relaxation curves were fitted globally, allowing only the rates of DL-TBOA dissociation to be adjusted (Figure 4—figure supplement 5).
# P11W^IFS [3] = target: T1, P11W^IFS; assay: Fluorescence-based titration using RH421; format: binding
# Method: After addition of appropriate NaCl concentrations and 200 nM RH421 (Sigma-Aldrich), the samples were incubated at 25°C until fluorescence signal plateaued. […] Excitation and emission wavelengths were 532 and 628 nm, respectively.
# wild type GltPh [4] = target: T2, wild type GltPh (Pyrococcus horikoshii, UniProt O59010); details: 100 mM NaCl; ref Ryan et al., 2009; cited from earlier work
# wild type GltPh [5] = target: T2, wild type GltPh; assay: L-asp transport (uptake and exchange) in proteoliposomes; format: biochemical; design: made in house; host or cells: Escherichia coli (DH10b is stated for the mutants); details: 35°C, 200 mM NaCl external
# Method: GltPh protein samples were reconstituted into liposomes as previously described ([Boudker et al., 2007]; [Ryan et al., 2009]). In brief, 0.1% L-α-Phosphatidylethanolamine-N-lissamine rhodamine B sulfonyl (Avanti Polar Lipids) was added to with 3:1 (w/w) mixture of E.coli polar lipid extract and egg phosphatidylcholine and dried on rotary evaporator and under vacuum overnight. The mixture was hydrated using 20 mM Hepes/Tris, pH 7.4 and 200 mM KCl buffer at final lipid concentration of 5 mg/ml by 10 freeze/thaw cycles. The suspensions were extruded through 400 nm filter membranes (Whatman) 10 times to form unilamellar liposomes. The rhodamine fluorescence of the liposomes was measured to generate a concentration calibration curve; excitation and emission wavelengths were 560 and 583 nm, respectively. […] Final concentrations of proteoliposomes were determined by rhodamine fluorescence.
# For substrate exchange experiments, the internal proteoliposome buffer was replaced with buffer containing 20 mM Hepes/Tris, pH 7.4 and 200 mM NaCl and 100 µM L-asp. […] The washed filter membranes were transferred into scintillation vials, and retained radioactivity was measured using LS6500 scintillation counter (Beckman Coulter). Background uptake was measured in the reaction buffer containing 20 mM Hepes/Tris pH 7.4, 200 mM KCl, 500 nM ^3H-L-asp and 100 nM cold L-asp.
# GltPh Na3 site = tested on: GltPh Na3 site; design: method as in Heinzelmann et al., 2011; Heinzelmann et al., 2013; details: estimated in computational studies, ref Heinzelmann et al., 2011, 2013; cited from earlier work
# [6] = target: T3, FM-P11W^IFS (R276S/M395R within P11W^IFS background) (Pyrococcus horikoshii, UniProt O59010, A364C/C321A/D37H/E368H/K125H/K132H/K223H/K264H/K40H/K55C/M395R/P11W/R276S); format: binding
# T3 construct: made in house; host or cells: Escherichia coli DH10b
# Method: as §1, §2
# P11W^IFS (Hg^2+-crosslinked P11W/K55C/A364C GltPh, inward-facing state), sequence (O59010 whole entry P11W/D37H/K40H/K55C/K125H/K132H/K223H/K264H/C321A/A364C/E368H): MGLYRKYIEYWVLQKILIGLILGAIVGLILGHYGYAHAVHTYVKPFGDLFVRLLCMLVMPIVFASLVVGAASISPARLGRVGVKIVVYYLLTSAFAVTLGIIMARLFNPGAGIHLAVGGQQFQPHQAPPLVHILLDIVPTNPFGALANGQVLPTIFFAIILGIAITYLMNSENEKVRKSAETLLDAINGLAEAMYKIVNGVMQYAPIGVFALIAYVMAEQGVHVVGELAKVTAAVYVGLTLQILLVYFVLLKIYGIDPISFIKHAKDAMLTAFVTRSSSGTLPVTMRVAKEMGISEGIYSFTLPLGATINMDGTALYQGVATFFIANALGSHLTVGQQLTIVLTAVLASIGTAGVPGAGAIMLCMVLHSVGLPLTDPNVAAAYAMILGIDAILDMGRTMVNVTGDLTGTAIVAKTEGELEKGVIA
# T1 sequence (O59010 whole entry P11W/D37H/K40H/K55C/K125H/K132H/K223H/K264H/C321A/A364C/E368H): as above
# T3 sequence (O59010 1-417 P11W/D37H/K40H/K55C/K125H/K132H/K223H/K264H/R276S/C321A/A364C/E368H/M395R): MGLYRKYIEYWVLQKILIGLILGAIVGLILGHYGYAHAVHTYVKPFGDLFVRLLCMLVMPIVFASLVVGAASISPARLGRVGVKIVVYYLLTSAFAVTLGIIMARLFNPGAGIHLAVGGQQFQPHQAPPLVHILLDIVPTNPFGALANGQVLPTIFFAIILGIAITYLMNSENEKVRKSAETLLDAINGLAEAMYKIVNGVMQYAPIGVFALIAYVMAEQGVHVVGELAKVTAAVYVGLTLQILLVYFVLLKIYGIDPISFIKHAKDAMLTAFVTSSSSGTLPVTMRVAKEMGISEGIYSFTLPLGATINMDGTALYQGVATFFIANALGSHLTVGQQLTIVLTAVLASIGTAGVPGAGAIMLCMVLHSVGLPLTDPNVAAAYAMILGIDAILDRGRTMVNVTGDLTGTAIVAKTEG
# T2 sequence (O59010 whole entry): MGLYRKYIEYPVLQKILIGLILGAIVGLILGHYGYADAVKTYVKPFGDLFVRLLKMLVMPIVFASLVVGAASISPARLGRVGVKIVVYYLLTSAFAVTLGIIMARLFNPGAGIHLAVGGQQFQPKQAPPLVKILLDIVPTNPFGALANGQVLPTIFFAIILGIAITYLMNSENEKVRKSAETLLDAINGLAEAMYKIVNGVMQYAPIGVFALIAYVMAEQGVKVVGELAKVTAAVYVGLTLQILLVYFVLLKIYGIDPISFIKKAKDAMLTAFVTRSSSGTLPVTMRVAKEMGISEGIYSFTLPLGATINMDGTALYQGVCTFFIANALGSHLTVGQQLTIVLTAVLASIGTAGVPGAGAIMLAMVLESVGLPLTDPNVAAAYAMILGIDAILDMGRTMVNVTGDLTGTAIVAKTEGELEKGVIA
smiles,measurement,setting,value
"N[C@H](C(=O)O)[C@H](OCc1ccccc1)C(=O)O (racemic) [DL-TBOA, DL-threo-β-benzyloxyaspartic acid, reference compound]",kobs of DL-TBOA binding,"[1]; 8 mM DL-TBOA, 4 mM Na^+, representative experiment, single exponential fit",0.2106 s⁻¹
same,slope of kr values versus Na^+ concentration,[1],26 ± 1.7 M⁻¹ s⁻¹
same,increase in the rate of unbinding relative to L-asp in kinetic model,P11W^IFS [2],about 20 fold
same,koff,"P11W^IFS [2]; reaction 3, TNa + A = TANa, P11W^IFS/DL-TBOA model",11.5 ± 5 s⁻¹
same,koff,"P11W^IFS [2]; reaction 4, TNa2 + A = TANa2, P11W^IFS/DL-TBOA model",1.72 ± 0.09 s⁻¹
"N[C@@H](CC(=O)O)C(=O)O [L-asp, aspartate]",kobs of L-asp binding,"[1]; 0.5 mM L-asp, 4 mM Na^+, representative experiment, single exponential fit",0.0712 s⁻¹
same,slope of kr values versus Na^+ concentration,[1],36 ± 0.9 M⁻¹ s⁻¹ and 36 M⁻¹ s⁻¹
same,slope of log-log plot of L-asp dissociation constants as a function of Na^+ concentration,P11W^IFS [3],2.5
same,Km,wild type GltPh [4],~0.1 µM
same,rate of concentrative Na^+-driven uptake of radiolabeled L-asp compared with rate of L-asp exchange,wild type GltPh [5],significantly higher
"[Na+] [Na^+, sodium]",intrinsic affinity of Na3 site,GltPh Na3 site,-16 kcal/mol
same,Kd,"[1]; Hill coefficient n fixed to 1, L-asp dissociation experiments, read-out: KD,Na of rapidly equilibrating Na^+ ions (fit to Equation 2)",40 ± 20 µM
same,Kd,"[1]; Hill coefficient n fixed to 2, L-asp dissociation experiments, read-out: KD,Na of rapidly equilibrating Na^+ ions (fit to Equation 2)",130 ± 20 µM
same,Kd,"[1]; Hill coefficient n fixed to 3, L-asp dissociation experiments, read-out: KD,Na of rapidly equilibrating Na^+ ions (fit to Equation 2)",150 ± 13 µM
same,Kd,[1]; read-out: affinity of the two 'locking' Na^+ ions,~100 µM
same,Na^+ concentration at which fluxes through 'second Na^+ binds first' and 'L-asp binds first' branches are equal,"P11W^IFS [2]; kinetic model, forward and reverse directions",~ 3.6 mM and 3.6 mM
same,kon,"P11W^IFS [2]; P11W^IFS/DL-TBOA model, fixed (*)",36 M⁻¹ s⁻¹
same,kon,"P11W^IFS [2]; P11W^IFS/L-asp model, fixed during fitting (*)",36 M⁻¹ s⁻¹
same,remaining binding rates for Na^+ ions,P11W^IFS [2]; set at an arbitrary high value,10^7 M^−1 s^−1
same,affinity of binding of the first Na^+ ion,P11W^IFS [2]; suggested by experimental data,no more than −0.5 kcal/mol
same,increase of the rate of binding of the first Na^+ ion relative to P11W^IFS,[6]; kinetic model adjustment,4 fold
same,kon,"[6]; reaction 1, T + Na = TNa, FM-P11W^IFS/L-asp model",144 M⁻¹ s⁻¹
same,koff,"[6]; reaction 1, T + Na = TNa, FM-P11W^IFS/L-asp model, optimized in global fitting (#)",39 ± 3 s⁻¹
